This is an account of results in patent US4026896A, “Aromatic amidocarboxylic acids and pharmaceutical compositions thereof” (Kissei Yakuhin Kogyo Kabushiki Kaisha (Kissei …, priority 1974, dated 1977).

The subject of the first test is homologous passive cutaneous anaphylaxis (PCA). The experiment in a line: Homologous passive cutaneous anaphylaxis (PCA) in rats, test compounds given orally. The settings on record: po; rat, 200 mg/kg p.o., 2 hours prior to injection of antigen and Evans blue; read-out: INHIBITION (%) of PCA (amount of dye leaked vs control group). The class given is in vivo, Wistar male rats. The protocol:
"Homologous passive cutaneous anaphylaxis (PCA) in rats."
Wistar male rats weighing from 120 to 150 g were used in the present experiment. Reaginic antibody was obtained from rats immunized with 2,4-dinitrophenyl-coupled ascaris extract (DNP-As) mixed with Bordetella pertussis. Normal rats were sensitized passively with an intradermal injection of the diluted antiserum. After 48 hours of the sensitization, the mixture of antigen (DNP-As) and Evans blue was injected intravenously. The animals were sacrificed by a blow on the head 30 minutes after challenging with antigen. The area blued as a result of PCA was excised and the amount of dye leaked was measured photometrically after the extraction of same with acetone containing sodium carbonate.
The test compounds were suspended in 0.5% aqueous solution of sodium carboxymethylcellulose (CMC) and administered 200 mg/kg p.o. 2 hours prior to the injection of a mixture of antigen and Evans blue. […] The efficacy of the test compounds to inhibit the PCA was compared with the value (%) calculated using the following formula: [formula] A: Amount of dye leaked in the control group B: Amount of dye leaked in the group treated with test compound
`COc1ccc(C(C)=CC(=O)Nc2ccccc2CC(=O)O)cc1OC` [2-(3',4'-dimethoxy-β-methylcinnamoylamino)phenylacetic]: the inhibition in vivo at 200 mg/kg was found to be 37.3%.

For the compound `COc1ccc(C=CC(=O)Nc2ccccc2OCC(=O)O)cc1OC` [2-(3',4'-dimethoxycinnamoylamino)phenoxyacetic acid], the inhibition in vivo at 200 mg/kg turned out to be 42.6%.

For `COc1ccc(C=CC(=O)Nc2ccccc2CC(=O)O)cc1OC` [2-(3',4'-dimethoxycinnamoylamino)phenylacetic acid], the inhibition in vivo at 200 mg/kg was determined as 63.9%.

On to `COc1ccc(CCC(=O)Nc2ccccc2OCC(=O)O)cc1OC` [2-(3',4'-dimethoxyhydrocinnamoylamino)phenoxyacetic acid], for which the inhibition in vivo at 200 mg/kg turned out to be 25.9%.

For the compound `CCCOc1ccc(C=CC(=O)Nc2ccccc2OCC(=O)O)cc1OC` [2-(3'-methoxy,4'-propoxycinnamoylamino)phenoxyacetic acid], the inhibition in vivo at 200 mg/kg was determined as 32.1%.

As to `O=C(O)Cc1ccccc1NC(=O)C=Cc1ccc(Cl)cc1` [2-(4'-chlorocinnamoylamino)phenylacetic acid], the inhibition in vivo at 200 mg/kg came out at 53.3%.

For the compound `O=C(C=Cc1ccccc1)Nc1cccc(C(=O)O)c1` [3-(cinnamoylamino)benzoic acid, reference compound], the inhibition in vivo at 200 mg/kg was found to be 10.8%.

Turning to `O=C(O)Cc1cccc(NC(=O)C=Cc2ccccc2)c1` [3-(cinnamoylamino)phenylacetic acid], the inhibition in vivo at 200 mg/kg turned out to be 39.8%.

Consider `O=C(O)Cc1ccc(NC(=O)C=Cc2ccc(O)cc2)cc1` [4-(4'-hydroxycinnamoylamino)phenylacetic acid], for which the inhibition in vivo at 200 mg/kg stood at 34.3%.

As for `O=C(C=Cc1ccccc1)Nc1ccc(C(=O)O)cc1` [4-(cinnamoylamino)benzoic acid, reference compound], the inhibition in vivo at 200 mg/kg is 7.5%.

Take `O=C(C=Cc1ccccc1)Nc1ccccc1C(=O)O` [N-cinnamoyl-anthranilic acid, reference compound]: the inhibition in vivo at 200 mg/kg is 18.1%.

Take `OCC(O)COc1ccc(Cl)cc1` (stereo not shown) [chlorphenesin, reference compound]: the inhibition in vivo at 200 mg/kg is 39.7%.

Consider `COc1ccc(C=CC(=O)Nc2ccccc2CCC(=O)O)cc1OC` [β-[2-(3',4'-dimethoxycinnamoylamino)]phenylpropionic], for which the inhibition in vivo at 200 mg/kg came to 27%.

On to `COc1ccc(C=CC(=O)Nc2cccc(CCC(=O)O)c2)cc1OC` [β-[3-(3',4'-dimethoxycinnamoylamino)]phenylpropionic], for which the inhibition in vivo at 200 mg/kg stood at 47.2%.

The same test, now with this note: rat, 200 mg/kg p.o., 2 hours prior to injection of antigen and Evans blue.
On to `COc1ccc(C=CC(=O)Nc2ccc(CC(=O)O)cc2)cc1` [4-(4'-methoxy-β-cinnamoylamino)phenylacetic acid], for which the “INHIBITION (%) of PCA (amount of dye leaked vs control group)” value is recorded as 85.3%.

Consider `Cc1ccc(C=CC(=O)Nc2ccc(OCC(=O)O)cc2)cc1` [β-[4-(4'-methylcinnamoylamino)]phenoxyacetic acid], for which the “INHIBITION (%) of PCA (amount of dye leaked vs control group)” value amounted to 75.9%.

A further test deals with experimental anaphylaxis / antiallergic effect.
Experiment: not given
Conditions: oral, mammalia; known reference compounds; cited from earlier work.
As to `O=C(O)c1cc(=O)c2c(OCC(O)COc3cccc4oc(C(=O)O)cc(=O)c34)cccc2o1` [disodium chromoglycate], the “antiallergic effect when administered orally” value was “not at all expected when this compound is administered orally”.

On to “cinnamoylaminobenzoic acid [unsubstituted cinnamoylaminobenzoic acid]”, for which the “antiallergic effect when administered orally” value is listed as “only a slightly weak antiallergic effect”.

The test system of a further test is release of chemical mediators from cells.
Experiment: not given
Conditions: caused by an antigen-antibody reaction; cited from earlier work.
Consider `O=C(O)c1cc(=O)c2c(OCC(O)COc3cccc4oc(C(=O)O)cc(=O)c34)cccc2o1` [disodium chromoglycate], for which the “inhibiting release of chemical mediators from cells” value was “effective for inhibiting release of chemical mediators from cells”.
